The values below come from patent US8129355B2, “Ketone ligands for modulating the expression of exogenous genes via an ecdysone receptor complex” (priority 2002, dated 2012).

The target of series [1] is T1, GAL4 DBD (1-147)-CfEcR(DEF)/VP16AD-βRXREF-LmUSPEF (Choristoneura fumiferana, UniProt O77240).
T1 sequence (O77240 191-513): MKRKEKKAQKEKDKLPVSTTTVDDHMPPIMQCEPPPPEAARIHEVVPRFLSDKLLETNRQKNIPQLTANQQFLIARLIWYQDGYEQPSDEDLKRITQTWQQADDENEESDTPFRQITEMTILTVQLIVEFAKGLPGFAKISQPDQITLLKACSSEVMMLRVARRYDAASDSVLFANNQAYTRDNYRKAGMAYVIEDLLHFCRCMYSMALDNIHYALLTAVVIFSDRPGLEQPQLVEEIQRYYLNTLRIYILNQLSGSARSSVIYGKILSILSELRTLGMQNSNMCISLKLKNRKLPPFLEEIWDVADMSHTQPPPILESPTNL
T1 sequence (P28702 296-455 partner limits assumed): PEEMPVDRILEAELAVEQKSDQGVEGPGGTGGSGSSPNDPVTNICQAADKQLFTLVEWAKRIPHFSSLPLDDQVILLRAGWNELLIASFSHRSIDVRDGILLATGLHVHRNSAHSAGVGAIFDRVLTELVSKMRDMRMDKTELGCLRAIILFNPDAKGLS
The series is described as follows: 27-63 assay: luciferase reporter gene expression in stable CHO cell clone 27-63. As to conditions: for 27-63 Rel Max FI: maximum fold induction at any concentration relative to that of GS-E ligand; for CC50: read-out: 27-63 LC50, average, dose response, three-parameter logistic model; for fold induction at 33 µM: CHO, read-out: Fold Induction Average, 27-63 Assay (33 μM). In a few lines:
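CHO clone stably expressing GAL4 DBD-CfEcR(DEF) and VP16AD-HsRXRβ/LmUSP EF chimera plus a 5XGAL4RE-luciferase reporter; ligands given at 8 concentrations (33 μM to 0.01 μM), luminescence read 48 h after treatment. Fold induction versus DMSO cells; BC50 from three-parameter logistic fit.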
A general note: Reporter assays use an easily measured gene product as a stand-in for the process of interest.

Series [2] addresses T2, GAL4 DBD-CfEcR(DEF)/VP16AD-MmRXRE (Choristoneura fumiferana, UniProt O77240).
T2 sequence (O77240 1-513): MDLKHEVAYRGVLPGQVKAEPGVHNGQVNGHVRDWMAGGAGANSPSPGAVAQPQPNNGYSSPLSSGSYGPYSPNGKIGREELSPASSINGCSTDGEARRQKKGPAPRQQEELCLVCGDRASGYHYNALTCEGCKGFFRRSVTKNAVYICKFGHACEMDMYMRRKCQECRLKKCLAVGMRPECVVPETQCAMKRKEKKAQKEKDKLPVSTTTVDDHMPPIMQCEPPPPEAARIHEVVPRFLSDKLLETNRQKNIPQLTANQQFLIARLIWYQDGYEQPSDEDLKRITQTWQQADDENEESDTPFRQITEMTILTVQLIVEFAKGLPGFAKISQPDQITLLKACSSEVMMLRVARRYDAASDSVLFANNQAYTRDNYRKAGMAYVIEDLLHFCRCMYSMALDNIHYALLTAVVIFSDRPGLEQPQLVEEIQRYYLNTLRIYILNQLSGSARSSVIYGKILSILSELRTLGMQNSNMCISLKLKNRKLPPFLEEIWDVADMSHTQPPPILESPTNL
The series is described as follows: cell-based. As to conditions: for fold induction at 33 µM: CHO, read-out: Fold Induction Average, 13B3 Assay (33 μM); for 13B3 Rel Max FI: maximum fold induction at any concentration relative to that of GS-E ligand. In short, it runs like this:
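Stable CHO clone 13B3 expressing GAL4 DBD-CfEcR(DEF) and VP16AD-mouse RXR(DE) with GAL4 RE-luciferase reporter. Ligands tested at 8 concentrations, 33–0.01 μM; luciferase read 48 h after treatment. Fold induction versus DMSO; BC50 from three-parameter logistic fit.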

The structures appear in SMILES notation. A value given as a limit tells only on which side of the number the result lay.

On to `COc1cccc(C(=O)NC(C)(C(=O)c2ccccc2)C(C)C)c1C` (stereo not drawn) [Example 34], for which, in series [1], the “27-63 Rel Max FI” value turned out to be 0.00 and the CC50 was greater than 33 µM. Moreover, in series [2], the EC50 (in general, the concentration that produces a half-maximal response) is greater than 33 µM; the fold induction at 33 µM was 6; the “13B3 Rel Max FI” value turned out to be 0.00.
For `COc1cccc(C(=O)NC(C)(C(=O)c2ccccc2C)C(C)C)c1C` (stereo not drawn) [Example 63], in series [1], the “27-63 Rel Max FI” value stood at 0.68 and the CC50 was determined as 27.2 µM. In series [2], the concentration giving a half-maximal response (EC50) is greater than 33 µM, the fold induction at 33 µM was 14 and the “13B3 Rel Max FI” value turned out to be 0.03.
Take `COc1cccc(C(=O)NC2(C(=O)c3cc(C)cc(C)c3)CCOCC2)c1C` [Example 27]: in series [1], the fold induction at 33 µM stood at 2740, the “27-63 Rel Max FI” value came out at 0.96 and the CC50 was found to be 10 µM. For the same compound, in series [2], the 50% effective concentration (EC50) was roughly 20 µM, the fold induction at 33 µM stood at 31600 and the “13B3 Rel Max FI” value is 0.36.
`COc1cccc(C(=O)NC2(C(=O)c3ccc(F)c(C)c3)CCCC2)c1C` [Example 17]: in series [1], the “27-63 Rel Max FI” value came out at 0.40 and the CC50 is roughly 5.5 µM. In addition, in series [2], it took 4.51 µM to reach a half-maximal effect (EC50), the fold induction at 33 µM was found to be 1190 and the “13B3 Rel Max FI” value stood at 0.01.
For `COc1cccc(C(=O)NC(C)(C(=O)c2cccc(C)c2)C(C)C)c1C` (stereo not drawn) [Example 31] the same measures were 0.61, roughly 15 µM, greater than 33 µM, 1000 and 0.08.
Consider `COc1cccc(C(=O)NC2(C(=O)c3cc(C)cc(C)c3)CCS(=O)(=O)CC2)c1C` [Example 62], for which, in series [1], the fold induction at 33 µM came to 224, the “27-63 Rel Max FI” value is on record as 0.04 and the CC50 is roughly 30 µM. Further, in series [2], the concentration for a half-maximal effect (EC50) was greater than 33 µM, the fold induction at 33 µM came out at 3 and the “13B3 Rel Max FI” value is on record as 0.00.
For `COc1cccc(C(=O)C(C)(C)NC(=O)c2ccccc2OC)c1` [Example 117], in series [1] (single dose 33 μM, RLU ligand treated / RLU DMSO treated cells), the “Fold Induction Average, 27-63 Assay (33 μM)” value is on record as 1. Further, in series [2], the “Fold Induction Average, 13B3 Assay (33 μM)” value was determined as 12.
For `COc1cccc(C(=O)NC2(C(=O)c3cc(C)cc(C)c3)CCSCC2)c1C` [Example 28], in series [1], the “27-63 Rel Max FI” value is given as 0.85 and the CC50 stood at 1.8 µM. In series [2], the midpoint of the response, the EC50, lay at 3.25 µM; the fold induction at 33 µM is 3180; the “13B3 Rel Max FI” value came out at 0.74.
`COc1cccc(C(=O)NC2(C(=O)c3cc(C)cc(C)c3)CCC2)c1C` [Example 14]: in series [1], the “27-63 Rel Max FI” value was 0.89 and the CC50 is roughly 10 µM. Moreover, in series [2], the concentration giving a half-maximal response (EC50) was 6.6 µM, the fold induction at 33 µM stood at 1024 and the “13B3 Rel Max FI” value is recorded as 0.33.
For `CCC(CC)(NC(=O)c1cccc(OC)c1C)C(=O)c1cc(C)cc(C)c1` [Example 51] the same measures were 0.54, 6.23 µM, roughly 15 µM, 1380 and 0.64.
For `COc1cccc(C(=O)C(C)(NC(=O)c2cccc(OC)c2C)C(C)C)c1` (stereo not drawn) [Example 32] the same measures were 0.01, greater than 33 µM, greater than 33 µM, 96 and 0.00.
`COc1cccc(C(=O)NC2(C(=O)c3cccc(C)c3)CCSCC2)c1C` [Example 26]: in series [1], the “27-63 Rel Max FI” value is given as 0.83 and the CC50 is 11 µM. Also, in series [2], the EC50 is roughly 20 µM and the “13B3 Rel Max FI” value is recorded as 0.11.
As to `COc1cccc(C(=O)NC(C)(CC(C)C)C(=O)c2cc(C)cc(C)c2)c1C` (stereo not drawn) [Example 55], in series [1], the “27-63 Rel Max FI” value worked out at 0.62 and the CC50 amounted to 3.85 µM. Moreover, in series [2], the EC50 was determined as 3.42 µM, the fold induction at 33 µM was 24700 and the “13B3 Rel Max FI” value amounted to 0.21.
For `COc1cccc(C(=O)NC2(C(=O)c3ccc(F)c(C)c3)CCCCC2)c1C` [Example 18] the same measures were 0.53, 3.27 µM, 3.96 µM, 50200 and 0.29.
`COc1cccc(C(=O)NC(C)(Cc2ccccc2)C(=O)c2cc(C)cc(C)c2)c1C` (stereo not drawn) [Example 12]: in series [1], the “27-63 Rel Max FI” value is 0.00 and the CC50 was greater than 33 µM. Further, in series [2], the EC50 was greater than 33 µM, the fold induction at 33 µM was determined as 72 and the “13B3 Rel Max FI” value is 0.00.
As for `CCC(CC)(NC(=O)c1cccc(OC)c1C)C(=O)c1ccccc1OC` [Example 37], in series [1], the “27-63 Rel Max FI” value is 0.81 and the CC50 is roughly 18 µM. In series [2], the EC50 is greater than 33 µM, the fold induction at 33 µM came out at 885 and the “13B3 Rel Max FI” value is 0.08.
In the case of `CCC(CC)(NC(=O)c1cccc(OC)c1C)C(=O)c1ccc(F)c(C)c1` [Example 50], in series [1], the “27-63 Rel Max FI” value stood at 0.00 and the CC50 was greater than 33 µM. Besides, in series [2], the EC50 is greater than 33 µM, the fold induction at 33 µM came out at 1 and the “13B3 Rel Max FI” value is listed as 0.00.
As to `COc1cccc(C(=O)NC2(C(=O)c3ccc(F)cc3)CCCC2)c1C` [Example 42], in series [1], the “27-63 Rel Max FI” value is recorded as 0.01 and the CC50 was greater than 33 µM. In series [2], the concentration for a half-maximal effect (EC50) was greater than 33 µM, the fold induction at 33 µM came to 4 and the “13B3 Rel Max FI” value amounted to 0.00.
As to `COc1cccc(C(=O)C(C)(CC(C)C)NC(=O)c2cccc(OC)c2C)c1` (stereo not drawn) [Example 53], in series [1], the “27-63 Rel Max FI” value turned out to be 0.00 and the CC50 is greater than 33 µM. Moreover, in series [2], the half-maximal effective concentration (EC50) was greater than 33 µM and the “13B3 Rel Max FI” value was found to be 0.00.
With `COc1cccc(C(=O)NC(C)(C(=O)c2cc(C)cc(C)c2)C(C)C)c1C` (stereo not drawn) [Example 20], in series [1], the “27-63 Rel Max FI” value is recorded as 0.71 and the CC50 came to 2.56 µM. In addition, in series [2], the response was half-maximal at 4 µM (EC50) and the “13B3 Rel Max FI” value stood at 0.92.
Consider `COc1ccccc1C(=O)C1(NC(=O)c2cccc(OC)c2C)CCCCC1` [Example 45], for which, in series [1], the “27-63 Rel Max FI” value was 0.71 and the CC50 was found to be 1.03 µM. Moreover, in series [2], the midpoint of the response, the EC50, lay at 1.35 µM; the fold induction at 33 µM was 92900; the “13B3 Rel Max FI” value is given as 0.67.
As to `COc1cccc(C(=O)NC2(C(=O)c3cc(C)cc(C)c3)CCCC2)c1C` [Example 10], in series [1], the “27-63 Rel Max FI” value was 0.86 and the CC50 was 1.91 µM. In addition, in series [2], the EC50 is 3.27 µM, the fold induction at 33 µM was 32700 and the “13B3 Rel Max FI” value stood at 0.71.
The like results for `COc1cccc(C(=O)NC2(C(=O)c3cccc(C)c3)CCCCC2)c1C` [Example 7] were, in that order, 0.77, 3.52 µM, 6.73 µM, 3100 and 0.55.
For `COc1cccc(C(=O)NC(C)(CC(C)C)C(=O)c2cccc(C)c2)c1C` (stereo not drawn) [Example 52] the same measures were 0.04, roughly 12 µM, greater than 33 µM, 114 and 0.00.
With `COc1cccc(C(=O)NC2(C(=O)c3ccccc3)CCCCC2)c1C` [Example 69], in series [1], the “27-63 Rel Max FI” value is reported as 0.84 and the CC50 is 14.4 µM. In series [2], the concentration for a half-maximal effect (EC50) turned out to be 19.4 µM, the fold induction at 33 µM is 164 and the “13B3 Rel Max FI” value is reported as 0.19.
For `COc1ccccc1C(=O)C(C)(NC(=O)c1cccc(OC)c1C)C(C)C` (stereo not drawn) [Example 30], in series [1], the “27-63 Rel Max FI” value stood at 0.03 and the CC50 was greater than 33 µM. Also, in series [2], the 50% effective concentration (EC50) is greater than 33 µM, the fold induction at 33 µM is 133 and the “13B3 Rel Max FI” value stood at 0.00.
